The record followed here is patent US20240174603A1 (Rappta Therapeutics Oy, priority 2021, published 2024).

The first assay deals with LNCaP cells. Kind of assay: LNCaP cell viability assay (MTS). Format: cell-based. To be noted: Homo sapiens, LNCaP, 48 h, LNCaP cell line. As for the experimental part:
LNCaP cell line was used for the cell viability assay. LNCaP cells were plated in 96-well plates at a density of 5000 cells per well. After 24 hours of plating, the cells were treated with increasing doses of compound (e.g., compounds 1-269) ranging from 1 μM to 80 μM. Relative cell numbers were analyzed after 48 hours using 3-(4,5-dimethylthiazol-2-yl)-5-(3-carboxymethoxyphenyl)-2-(4-sulfophenyl)-2H-tetrazolium (MTS) assay (Promega) according to the manufacturer's instructions.
The cell viability data was analyzed with GraphPad Prism software. The values were log transformed and analyzed with non-linear regression (curve-fit) using log(inhibitor) vs. response-variable slope (four parameters) and constraining the bottom to equal zero. Unless otherwise indicated, the GI50 values provided in Table 113 correspond to the LNCaP cell viability assays.
`COc1ccc([C@@H]2[C@@H](CNS(=O)(=O)c3ccc(OC(F)(F)F)cc3)CCN2C)cc1` (racemic) [Compound 106, Rac-N-(((2S,3R)-2-(4-methoxyphenyl)-1-methylpyrrolidin-3-yl)methyl)-4-(trifluoromethoxy)benzenesulfonamide] registered a GI50 of 24 µM.

On to `O=S(=O)(NC(c1cc(Cl)cc(Cl)c1)C1CCCCC1)c1ccc(OC(F)(F)F)cc1` (single isomer, unassigned) [Compound 140, N-(cyclohexyl(3,5-dichlorophenyl)methyl)-4-(trifluoromethoxy)benzenesulfonamide], for which the GI50 was found to be 19 µM.

Take `O=S(=O)(NC(CC1CC1)c1ccc(F)cc1Br)c1ccc(OC(F)(F)F)cc1` (single isomer, unassigned) [Compound 142a, N-(1-(2-bromo-4-fluorophenyl)-2-cyclopropylethyl)-4-(trifluoromethoxy)benzenesulfonamide]: halving of growth (GI50) required 80 µM.

The compound `CN(C)CC(NS(=O)(=O)c1ccc(OC(F)(F)F)cc1)c1ccc(Cl)c(Cl)c1` (single isomer, unassigned) [Compound 148, N-(1-(3,4-dichlorophenyl)-2-(dimethylamino)ethyl)-4-(trifluoromethoxy)benzenesulfonamide] yielded a GI50 of 12.7 µM.

The compound `CN(C)CC(NS(=N)(=O)c1ccc(OC(F)(F)F)cc1)c1ccc(Cl)c(Cl)c1` (single isomer, unassigned) [Compound 165a, N-(1-(3,4-dichlorophenyl)-2-(dimethylamino)ethyl)-4-(trifluoromethoxy)benzenesulfonimidamide] returned a GI50 of 46.3 µM. This GI50 lies about 3.6-fold higher than the previous one.

`CN(C)CC(NS(=O)(=O)c1ccc(Oc2ccccc2)cc1)c1ccc(Cl)c(Cl)c1` (single isomer, unassigned) [Compound 170, N-(1-(3,4-dichlorophenyl)-2-(dimethylamino)ethyl)-4-phenoxybenzenesulfonamide] registered a GI50 of 13.3 µM.

As for `CN(C)CC(NS(=O)(=O)c1ccc(OC(F)(F)F)cc1)c1ccc(Cl)cc1` (single isomer, unassigned) [Compound 179, N-(1-(4-chlorophenyl)-2-(dimethylamino)ethyl)-4-(trifluoromethoxy)benzenesulfonamide], the GI50 amounted to 43.1 µM.

Compound `CN(C)CC(NS(=O)(=O)c1ccc(-c2ccccc2)cc1)c1ccc(Cl)c(Cl)c1` (single isomer, unassigned) [Compound 195, N-(1-(3,4-dichlorophenyl)-2-(dimethylamino)ethyl)-[1,1′-biphenyl]-4-sulfonamide] came in with a GI50 of 11.9 µM.

The compound `CN(C)CC(NS(=O)(=O)c1cccc(-c2ccccc2)c1)c1ccc(Cl)c(Cl)c1` (single isomer, unassigned) [Compound 197, N-(1-(3,4-dichlorophenyl)-2-(dimethylamino)ethyl)-[1,1′-biphenyl]-3-sulfonamide] displayed a 50% growth inhibitory concentration (GI50) of 19.3 µM. This GI50 lies about 1.6-fold higher than the previous one.

In the case of `CCCc1ccc(S(=O)(=O)NC(CN(C)C)c2ccc(Cl)c(Cl)c2)cc1` (single isomer, unassigned) [Compound 199, N-(1-(3,4-dichlorophenyl)-2-(dimethylamino)ethyl)-4-propylbenzenesulfonamide], growth was halved (GI50) at 14.4 µM.

The compound `CN(C)CC(NS(=O)(=O)c1ccc(OC(F)(F)F)c(Cl)c1)c1ccc(Cl)c(Cl)c1` (single isomer, unassigned) [Compound 201, 3-chloro-N-(1-(3,4-dichlorophenyl)-2-(dimethylamino)ethyl)-4-(trifluoromethoxy)benzenesulfonamide] had a GI50 of 22.8 µM.

Compound `CN(C)C[C@@H](NS(=O)(=O)c1ccc(OC(F)(F)F)c([N+](=O)[O-])c1)c1ccc(Cl)c(Cl)c1` (single isomer, unassigned) [Compound 203, N-(1-(3,4-dichlorophenyl)-2-(dimethylamino)ethyl)-3-nitro-4-(trifluoromethoxy)benzenesulfonamide] returned a 50% growth inhibitory concentration (GI50) of 1.4 µM.

In turn, `O=S(=O)(NC(CN1CC2CC1CN2)c1ccc(Cl)c(Cl)c1)c1ccc(OC(F)(F)F)cc1` (single isomer, unassigned) [Compound 261a, N-(2-(2,5-diazabicyclo[2.2.1]heptan-2-yl)-1-(3,4-dichlorophenyl)ethyl)-4-(trifluoromethoxy)benzenesulfonamide] had a GI50 of 10.5 µM.

Consider `COc1ccc(S(=O)(=O)N2CCC(CNS(=O)(=O)c3ccc(OC(F)(F)F)cc3)CC2)cc1OC` [Compound 1, N-((1-((3,4-dimethoxyphenyl)sulfonyl)piperidin-4-yl)methyl)-4-(trifluoromethoxy)benzenesulfonamide], for which the GI50 worked out at 63.8 µM.

The assay is the same for the next values; noted with them: LNCaP cell line, 48 hours.
As to `O=S(=O)(NC(c1cc(Cl)cc(Cl)c1)C1CCCCC1)c1ccc(OC(F)(F)F)cc1` (single isomer, unassigned) [Compound 141, N-(cyclohexyl(3,5-dichlorophenyl)methyl)-4-(trifluoromethoxy)benzenesulfonamide], the GI50 stood at 21.3 µM.

In turn, `O=S(=O)(NC(CC1CC1)c1ccc(F)cc1Br)c1ccc(OC(F)(F)F)cc1` (single isomer, unassigned) [Compound 142b, N-(1-(2-bromo-4-fluorophenyl)-2-cyclopropylethyl)-4-(trifluoromethoxy)benzenesulfonamide] yielded a concentration for 50% growth inhibition (GI50) of 49.6 µM.

For `CN(C)CC(NS(=O)(=O)c1ccc(OC(F)(F)F)cc1)c1ccc(Cl)c(Cl)c1` (single isomer, unassigned) [Compound 149, N-(1-(3,4-dichlorophenyl)-2-(dimethylamino)ethyl)-4-(trifluoromethoxy)benzenesulfonamide], it took 23.9 µM to inhibit growth by half (GI50).

`CN(C)CC(NS(=N)(=O)c1ccc(OC(F)(F)F)cc1)c1ccc(Cl)c(Cl)c1` (single isomer, unassigned) [Compound 165b, N-(1-(3,4-dichlorophenyl)-2-(dimethylamino)ethyl)-4-(trifluoromethoxy)benzenesulfonimidamide]: halving of growth (GI50) required 53.8 µM.

Turning to `CN(C)CC(NS(=O)(=O)c1ccc(Oc2ccccc2)cc1)c1ccc(Cl)c(Cl)c1` (single isomer, unassigned) [Compound 171, N-(1-(3,4-dichlorophenyl)-2-(dimethylamino)ethyl)-4-phenoxybenzenesulfonamide], the GI50 came to 15.8 µM.

`CN(C)CC(NS(=O)(=O)c1ccc(Oc2ccc(C(F)(F)F)cc2)cc1)c1ccc(Cl)c(Cl)c1` (single isomer, unassigned) [Compound 172, N-(1-(3,4-dichlorophenyl)-2-(dimethylamino)ethyl)-4-(4-(trifluoromethyl)phenoxy)benzenesulfonamide] gave a 50% growth inhibitory concentration (GI50) of 6.04 µM. Compared with the last compound, the GI50 is about 2.6-fold lower.

Compound `CN(C)CC(NS(=O)(=O)c1ccc(Oc2ccc(C(F)(F)F)cc2)cc1)c1ccc(Cl)c(Cl)c1` (single isomer, unassigned) [Compound 173, N-(1-(3,4-dichlorophenyl)-2-(dimethylamino)ethyl)-4-(4-(trifluoromethyl)phenoxy)benzenesulfonamide] gave a concentration for 50% growth inhibition (GI50) of 13 µM.

As to `CN(C)CC(NS(=O)(=O)c1ccc(OC(F)(F)F)cc1)c1cccc(C(F)(F)F)c1` (single isomer, unassigned) [Compound 177, N-(2-(dimethylamino)-1-(3-(trifluoromethyl)phenyl)ethyl)-4-(trifluoromethoxy)benzenesulfonamide], the GI50 is 24.9 µM. Against the preceding compound, the GI50 is about 1.9-fold higher.

`CN(C)CC(NS(=O)(=O)c1ccc(OC(F)(F)F)cc1)c1cccc(C(F)(F)F)c1` (single isomer, unassigned) [Compound 178, N-(2-(dimethylamino)-1-(3-(trifluoromethyl)phenyl)ethyl)-4-(trifluoromethoxy)benzenesulfonamide] displayed a GI50 of 51.2 µM.

For the compound `CN(C)CC(NS(=O)(=O)c1ccc(OC(F)(F)F)cc1)c1ccc(Cl)cc1` (single isomer, unassigned) [Compound 180, N-(1-(4-chlorophenyl)-2-(dimethylamino)ethyl)-4-(trifluoromethoxy)benzenesulfonamide], the GI50 stood at 51.3 µM.

In the case of `CN(C)CC(NS(=O)(=O)c1ccc(-c2ccccc2)cc1)c1ccc(Cl)c(Cl)c1` (single isomer, unassigned) [Compound 196, N-(1-(3,4-dichlorophenyl)-2-(dimethylamino)ethyl)-[1,1′-biphenyl]-4-sulfonamide], the 50% growth inhibitory concentration (GI50) was determined as 15.9 µM.

`CN(C)CC(NS(=O)(=O)c1cccc(-c2ccccc2)c1)c1ccc(Cl)c(Cl)c1` (single isomer, unassigned) [Compound 198, N-(1-(3,4-dichlorophenyl)-2-(dimethylamino)ethyl)-[1,1′-biphenyl]-3-sulfonamide] returned a concentration for 50% growth inhibition (GI50) of 12.5 µM.

Take `CCCc1ccc(S(=O)(=O)NC(CN(C)C)c2ccc(Cl)c(Cl)c2)cc1` (single isomer, unassigned) [Compound 200, N-(1-(3,4-dichlorophenyl)-2-(dimethylamino)ethyl)-4-propylbenzenesulfonamide]: the GI50 was determined as 17.8 µM.

The compound `CN(C)CC(NS(=O)(=O)c1ccc(OC(F)(F)F)c(Cl)c1)c1ccc(Cl)c(Cl)c1` (single isomer, unassigned) [Compound 202, 3-chloro-N-(1-(3,4-dichlorophenyl)-2-(dimethylamino)ethyl)-4-(trifluoromethoxy)benzenesulfonamide] showed a GI50 of 21.6 µM.

Take `CN(C)C[C@@H](NS(=O)(=O)c1ccc(OC(F)(F)F)c([N+](=O)[O-])c1)c1ccc(Cl)c(Cl)c1` (single isomer, unassigned) [Compound 204, N-(1-(3,4-dichlorophenyl)-2-(dimethylamino)ethyl)-3-nitro-4-(trifluoromethoxy)benzenesulfonamide]: it took 1.14 µM to inhibit growth by half (GI50).

Compound `O=S(=O)(NC(CN1CC2CC1CN2)c1ccc(Cl)c(Cl)c1)c1ccc(OC(F)(F)F)cc1` (single isomer, unassigned) [Compound 261b, N-(2-(2,5-diazabicyclo[2.2.1]heptan-2-yl)-1-(3,4-dichlorophenyl)ethyl)-4-(trifluoromethoxy)benzenesulfonamide] returned a GI50 of 9.79 µM.

One may read the GI50 as the concentration at which growth is held to half of that of the control.
